For one test, the target named is PIM1 (Homo sapiens (Human), UniProt P11309). Nature of the test: biochemical. The format is biochemical. As to conditions: 10 μM ATP, 90 min, room temperature; read-out: PIM1 LC3K (KI). Summed up:
(§1)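 Pim-specific fluorescent peptide phosphorylated in 10 mM HEPES pH 7.2, 10 mM MgCl2, 0.01% Tween 20, 2 mM DTT for 90 min at room temperature, then stopped with EDTA. Product and substrate separated by microfluidic mobility shift; Ki derived from substrate conversion.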

In the next test the test system is BaF3 PIM1 cells. Nature of the test: In vitro cell proliferation potency assay (Cell Titer Glo), BaF3 PIM1 cells. The format is cell-based, murine. The following applies: read-out: Prolif BaF3_PIM 1 (IC50). Here is the method:
BaF3 parental line was obtained from the DSMZ repository. BaF3 lines transfected with PIM1 or PIM2 were generated. Mouse IL-3 was purchased from R&D Systems. G418 was purchased from Clontech. Media for BaF3 parental line contained RPMI, 10% FBS, 2 mM L-Glutamine, 2 ng/mL mIL-3. Media for BaF3 PIM1 & 2 lines contained RPMI, 10% FBS, 2 mM L-Glutamine, […]. Media for MM1.S (multiple myeloma cells) line contained RPMI, 10% FBS, 2 mM L-Glutamine.
BaF3, a murine interleukin-3 dependent pro-B cell line, parental cells, BaF3 PIM1 cells, BaF3 PIM2 cells, and MM1.S (multiple myeloma) cells were seeded at 2 k/well, 5 k/well, 5 k/well, and 10 k/well respectively, in a 384-well plate, at 45 μL/well. Test compound was added at 5 μL/well. BaF3 cells (parental and transfected) were incubated overnight, while MM1.S cells were incubated for 72 hours at 37° C., 5% CO2. CELL TITER GLO® Reagent (Promega) was added at 50 μL/well, the plates were incubated for 30 minutes, and their luminescence read on an HT Analyst. IC50/EC50 values for the test compound were calculated.
(In ATP-based viability assays light output follows the ATP content of the culture.)

In another test the target is PIM3 (Homo sapiens (Human), UniProt Q86V86). Nature of the test: Pim kinase binding activity, Caliper LC3000 microfluidic peptide phosphorylation assay, PIM3. The format is biochemical. As to conditions: 10 μM ATP, 90 min, room temperature; read-out: PIM3 LC3K (KI). The essentials:
as §1

The next test has as its target PIM2 (Homo sapiens (Human), UniProt Q9P1W9). Description: Pim kinase binding activity, Caliper LC3000 microfluidic peptide phosphorylation assay, PIM2. As to conditions: 10 μM ATP, 90 min, room temperature; read-out: PIM2 LC3K (KI). The format is biochemical. Summed up:
as §1

Structures can show the parent of a compound that is named as a salt. Where two headings read alike, the source gives them in different places.

Chain of PIM1 (P11309 whole entry): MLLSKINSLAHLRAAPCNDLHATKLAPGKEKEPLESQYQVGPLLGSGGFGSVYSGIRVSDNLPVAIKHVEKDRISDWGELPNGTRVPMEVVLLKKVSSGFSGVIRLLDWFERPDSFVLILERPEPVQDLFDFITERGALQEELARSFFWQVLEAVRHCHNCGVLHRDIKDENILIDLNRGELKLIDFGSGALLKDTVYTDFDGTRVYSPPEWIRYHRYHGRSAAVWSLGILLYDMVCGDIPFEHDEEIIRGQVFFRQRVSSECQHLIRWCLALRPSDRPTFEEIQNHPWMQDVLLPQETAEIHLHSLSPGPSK
Chain of PIM2 (Q9P1W9 whole entry): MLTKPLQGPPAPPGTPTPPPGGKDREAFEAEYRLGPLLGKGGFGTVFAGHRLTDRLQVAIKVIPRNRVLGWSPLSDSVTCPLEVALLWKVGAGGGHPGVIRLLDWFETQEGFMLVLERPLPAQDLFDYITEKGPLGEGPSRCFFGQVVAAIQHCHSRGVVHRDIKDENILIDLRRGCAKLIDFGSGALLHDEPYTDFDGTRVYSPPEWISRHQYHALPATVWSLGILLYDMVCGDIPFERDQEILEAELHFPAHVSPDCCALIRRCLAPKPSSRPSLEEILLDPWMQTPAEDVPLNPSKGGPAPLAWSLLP

Usually Ki stands for a measure of affinity in units of concentration, obtained from inhibition or displacement. As usually defined, the IC50 is the midpoint of a concentration-inhibition curve. With `Cc1cncc(-c2cc3c(cn2)cnn3-c2cccc(N3CCNC(C)C3)n2)n1` (single isomer, unassigned) [Compound 193, 1-[6-(3-methylpiperazin-1-yl)-2-pyridyl]-6-(6-methylpyrazin-2-yl)pyrazolo[4,3-c]pyridine], the figures for the Ki on PIM1, on PIM3 and at PIM2 were 0.046 nM, 0.035 nM and 0.596 nM, respectively. Also, in the test with BaF3 PIM1 cells (BaF3 cells transfected with PIM1, incubated overnight), the IC50 turned out to be 1200 nM.
As to `CCc1cncc(-c2cc3c(cn2)cnn3-c2cccc(N3CCNCC3)n2)c1` [Compound 104, 6-(5-ethylpyridin-3-yl)-1-(6-(piperazin-1-yl)pyridin-2-yl)-1H-pyrazolo[4,3-c]pyridine], the Ki worked out at 0.119 nM on PIM1 and 0.077 nM on PIM3. In addition, the IC50 with BaF3 PIM1 cells (Mus musculus, BaF3, BaF3 cells transfected with PIM1, incubated overnight) is 1500 nM.
As to `Cn1cc(-c2cc3c(cn2)cnn3-c2cn(C)c(=O)c(N3CCNCC(O)C3)n2)cn1` (stereo not shown) [Compound 254, 3-(6-Hydroxy-1,4-diazepan-1-yl)-1-methyl-5-(6-(1-methyl-1H-pyrazol-4-yl)-1H-pyrazolo[4,3-c]pyridin-1-yl)pyrazin-2(1H)-one], the inhibition constant (Ki) worked out at 30.6 nM on PIM1, 6.24 nM on PIM3 and 718 nM on PIM2.
The like results for `OC1CN(c2cccc(-n3ncc4cnc(-c5cnn(CC(F)(F)F)c5)cc43)n2)C1` [Compound 255, 1-(6-(6-(1-(2,2,2-Trifluoroethyl)-1H-pyrazol-4-yl)-1H-pyrazolo[4,3-c]pyridin-1-yl)pyridin-2-yl)azetidin-3-ol] were, in that order, 0.876 nM, 1.58 nM and 9.62 nM.
`Cn1cc(-c2cc3c(cn2)cnn3-c2cccc(N3CC(CN)C3)n2)cn1` [Compound 256, (1-(6-(6-(1-Methyl-1H-pyrazol-4-yl)-1H-pyrazolo[4,3-c]pyridin-1-yl)pyridin-2-yl)azetidin-3-yl)methanamine]: the Ki at PIM1 is 5.58 nM; on PIM3, 2.02 nM; at PIM2, 83.2 nM.
The corresponding values for `Cn1cc(-c2cc3c(cn2)cnn3-c2cccc(N3CC(N)C3)n2)cn1` [Compound 257, 1-(6-(6-(1-Methyl-1H-pyrazol-4-yl)-1H-pyrazolo[4,3-c]pyridin-1-yl)pyridin-2-yl)azetidin-3-amine] are 0.784 nM, 0.507 nM and 23.3 nM.
For the compound `NC1CN(c2cccc(-n3ncc4cnc(-c5cnn(CC(F)(F)F)c5)cc43)n2)C1` [Compound 258, 1-(6-(6-(1-(2,2,2-Trifluoroethyl)-1H-pyrazol-4-yl)-1H-pyrazolo[4,3-c]pyridin-1-yl)pyridin-2-yl)azetidin-3-amine], the figures for the Ki at PIM1, at PIM3 and at PIM2 were 0.514 nM, 1.14 nM and 8.18 nM, respectively.
The like results for `CO[C@@]1(C)CNCCN(c2cccc(-n3ncc4cnc(-c5cnn(CC(F)(F)F)c5)cc43)n2)C1` [Compound 261, (S)-1-(6-(6-Methoxy-6-methyl-1,4-diazepan-1-yl)pyridin-2-yl)-6-(1-(2,2,2-trifluoroethyl)-1H-pyrazol-4-yl)-1H-pyrazolo[4,3-c]pyridine] were, in that order, 0.763 nM, 2.74 nM and 16.5 nM.
The like results for `NCC1CN(c2cccc(-n3ncc4cnc(-c5cnn(CC(F)(F)F)c5)cc43)n2)C1` [Compound 262, (1-(6-(6-(1-(2,2,2-Trifluoroethyl)-1H-pyrazol-4-yl)-1H-pyrazolo[4,3-c]pyridin-1-yl)pyridin-2-yl)azetidin-3-yl)methanamine] were, in that order, 1.23 nM, 1.84 nM and 12.5 nM.
Regarding `CO[C@]1(C)CNCCN(c2cccc(-n3ncc4cnc(-c5cnn(CC(F)(F)F)c5)cc43)n2)C1` [Compound 264, (R)-1-(6-(6-Methoxy-6-methyl-1,4-diazepan-1-yl)pyridin-2-yl)-6-(1-(2,2,2-trifluoroethyl)-1H-pyrazol-4-yl)-1H-pyrazolo[4,3-c]pyridine], the inhibition constant (Ki) at PIM1 is 2.94 nM; at PIM3 it was 6.37 nM; at PIM2 it was 58.2 nM.
For the compound `Cc1cncc(-c2cc3c(cn2)cnn3-c2cccc(C3CNCCC3O)n2)n1` (stereo not shown) [Compound 265, 3-[6-[6-(6-methylpyrazin-2-yl)pyrazolo[4,3-c]pyridin-1-yl]-2-pyridyl]piperidin-4-ol], the inhibition constant Ki at PIM1 was found to be 0.941 nM; on PIM3, 0.206 nM; on PIM2 it was 8.79 nM.
The corresponding values for `Cn1cc(-c2cc3c(cn2)cnn3-c2cccc(N3CC4(CCCCN4)C3)n2)cn1` [Compound 266, 1-(6-(2,5-Diazaspiro[3.5]nonan-2-yl)pyridin-2-yl)-6-(1-methyl-1H-pyrazol-4-yl)-1H-pyrazolo[4,3-c]pyridine] are 1.1 nM, 1.21 nM and 29.3 nM.
The like results for `FC(F)(F)Cn1cc(-c2cc3c(cn2)cnn3-c2cccc(N3CC4(CNC4)C3)n2)cn1` [Compound 267, 1-(6-(2,6-Diazaspiro[3.3]heptan-2-yl)pyridin-2-yl)-6-(1-(2,2,2-trifluoroethyl)-1H-pyrazol-4-yl)-1H-pyrazolo[4,3-c]pyridine] were, in that order, 3.81 nM, 6.01 nM and 30.3 nM.
The corresponding values for `FC(F)(F)Cn1cc(-c2cc3c(cn2)cnn3-c2cccc(N3CC4(CCCCN4)C3)n2)cn1` [Compound 269, 1-(6-(2,5-Diazaspiro[3.5]nonan-2-yl)pyridin-2-yl)-6-(1-(2,2,2-trifluoroethyl)-1H-pyrazol-4-yl)-1H-pyrazolo[4,3-c]pyridine] are 15.7 nM, 27 nM and 194 nM.
Consider `Cn1cc(-c2cc3c(cn2)cnn3-c2cccc(N3CC(O)(CN)C3)n2)cn1` [Compound 270, 3-(Aminomethyl)-1-(6-(6-(1-methyl-1H-pyrazol-4-yl)-1H-pyrazolo[4,3-c]pyridin-1-yl)pyridin-2-yl)azetidin-3-ol], for which the inhibition constant Ki at PIM1 is 1.08 nM; at PIM3 it was 0.361 nM; at PIM2 it was 20.4 nM.
The like results for `Clc1cncc(-c2cc3c(cn2)cnn3-c2cccc(N3CCNCC3)n2)n1` [Compound 275, 6-(6-Chloropyrazin-2-yl)-1-(6-(piperazin-1-yl)pyridin-2-yl)-1H-pyrazolo[4,3-c]pyridine dihydrochloride] were, in that order, 0.725 nM, 0.267 nM and 5.74 nM.
The like results for `c1ccc(COc2cncc(-c3cc4c(cn3)cnn4-c3cccc(N4CCNCC4)n3)n2)cc1` [Compound 276, 6-(6-(benzyloxy)pyrazin-2-yl)-1-(6-(piperazin-1-yl)pyridin-2-yl)-1H-pyrazolo[4,3-c]pyridine] were, in that order, 0.494 nM, 0.337 nM and 34.8 nM.
Take `OC[C@@H]1CCCN1c1cncc(-c2cc3c(cn2)cnn3-c2cccc(N3CCNCC3)n2)n1` [Compound 280, (S)-(1-(6-(1-(6-(piperazin-1-yl)pyridin-2-yl)-1H-pyrazolo[4,3-c]pyridin-6-yl)pyrazin-2-yl)pyrrolidin-2-yl)methanol dihydrochloride]: the Ki at PIM1 was found to be 0.051 nM; on PIM3, 0.101 nM; at PIM2 it was 18 nM.
The corresponding values for `O=c1cncc(-c2cc3c(cn2)cnn3-c2cccc(N3CCNCC3)n2)[nH]1` [Compound 287, 6-[1-(6-piperazin-1-yl-2-pyridyl)pyrazolo[4,3-c]pyridin-6-yl]-1H-pyrazin-2-one] are 0.698 nM, 0.37 nM and 17.5 nM.
The like results for `Cc1cncc(-c2cc3c(cn2)cnn3-c2cccc(C3(O)CCCNC3)n2)n1` (stereo not shown) [Compound 288, 3-(6-(6-(6-methylpyrazin-2-yl)-1H-pyrazolo[4,3-c]pyridin-1-yl)pyridin-2-yl)piperidin-3-ol] were, in that order, 0.918 nM, 0.564 nM and 5.56 nM.
The like results for `Cn1ncc(-c2cc3c(cn2)cnn3-c2ccccc2F)c1Cl` [Compound 309, 6-(5-chloro-1-methyl-1H-pyrazol-4-yl)-1-(2-fluorophenyl)-1H-pyrazolo[4,3-c]pyridine] were, in that order, 487 nM, 944 nM and 2200 nM.
`Cc1cncc(-c2cc3c(cn2)cnn3-c2cccc(N3CCC(O)C(O)C3)n2)n1` (stereo not shown) [Compound 312, 1-(6-(6-(6-methylpyrazin-2-yl)-1H-pyrazolo[4,3-c]pyridin-1-yl)pyridin-2-yl)piperidine-3,4-diol]: the Ki on PIM1 is 0.644 nM; on PIM3, 0.481 nM; at PIM2, 3.58 nM.
In the case of `Cn1ncc(-c2cc3c(cn2)cnn3-c2ccccc2F)c1C1=CCNCC1` [Compound 314, 1-(2-fluorophenyl)-6-(1-methyl-5-(1,2,3,6-tetrahydropyridin-4-yl)-1H-pyrazol-4-yl)-1H-pyrazolo[4,3-c]pyridine], the inhibitory constant (Ki) on PIM1 came out at 130 nM; on PIM3, 166 nM; on PIM2 it was 1100 nM.

For the origin of these results see patent publication US9434725B2, “5-azaindazole compounds and methods of use” (priority 2012, dated 2016).
